For experiment [1], the target named is Human sodium/glucose co-transporter type 1 (SGLT1) (Homo sapiens (Human), UniProt P13866). Kind of experiment: In vitro human SGLT1 inhibition assay (14C-AMG uptake). Also on record: key to SGLT1 (human SGLT1 IC50): ***: a value less than 0.01 μM; **: a value less than 0.1 μM; *: a value less than 1 μM; —: a value not measured or exceeding μM. The class given is cell-based. To be noted: HEK293 cells expressing human HA-SGLT1, 14C-AMG uptake. As for the experimental part:
Human sodium/glucose co-transporter type 1 (SGLT1; accession number NP_000334; GI: 4507031) was cloned into pIRESpuro2 vector for mammalian expression (construct: HA-SGLT1-pIRESpuro2).
HEK293 cells were transfected with the human HA-SGLT1-pIRESpuro2 vector and the bulk stable cell line was selected in presence of 0.5 μg/mL of puromycin. Human HA-SGLT1 cells were maintained in DMEM media containing 10% FBS, 1% GPS and 0.5 μg/mL of puromycin.
The HEK293 cells expressing the human HA-SGLT1 were seeded in 384 well plates (30,000 cells/well) in DMEM media containing 10% FBS, 1% GPS and 0.5 μg/mL of puromycin, then incubated overnight at 37 C, 5% CO2. Cells were then washed with uptake buffer (140 mM NaCl, 2 mM KCl, 1 mM CaCl2, 1 mM MgCl2, 10 mM HEPES, 5 mM Tris, 1 mg/mL bovine serum albumin (BSA), pH 7.3). Twenty microliters of uptake buffer with or without testing compounds were added to the cells. Then, 20 microliters of uptake buffer containing ^14C-AMG (100 nCi) were also added to cells. The cell plates were incubated at 37° C., 5% CO2 for 1-2 hours. After washing the cells with uptake buffer, scintillation fluid was added (40 microliters/well) and ^14C-AMG uptake was measured by counting radioactivity using a scintillation coulter (TopCoulter NXT; Packard Instruments).

Experiment [2] has as its target Human sodium/glucose co-transporter type 2 (SGLT2) (Homo sapiens (Human), UniProt P31639). Kind of experiment: In vitro human SGLT2 inhibition assay (14C-AMG uptake). The class given is cell-based. The conditions noted are these: HEK293 cells expressing human HA-SGLT2, 14C-AMG uptake. Also on record: key to SGLT2 (human SGLT2 IC50): ***: a value less than 0.01 μM; **: a value less than 0.1 μM; *: a value less than 1 μM; —: a value not measured or exceeding μM. On the procedure:
Human sodium/glucose co-transporter type 2 (SGLT2; accession number P31639; GI:400337) was cloned into pIRESpuro2 vector for mammalian expression (construct: HA-SGLT2-pIRESpuro2).
HEK293 cells were transfected with the human HA-SGLT2-pIRESpuro2 vector and the bulk stable cell line was selected in presence of 0.5 μg/mL of puromycin. Human HA-SGLT2 cells were maintained in DMEM media containing 10% FBS, 1% GPS and 0.5 μg/mL of puromycin.
The HEK293 cells expressing the human HA-SGLT2 were seeded in 384 well plates (30,000 cells/well) in DMEM media containing 10% FBS, 1% GPS and 0.5 μg/mL of puromycin, then incubated overnight at 37 C, 5% CO2. Cells were then washed with uptake buffer (140 mM NaCl, 2 mM KCl, 1 mM CaCl2, 1 mM MgCl2, 10 mM HEPES, 5 mM Tris, 1 mg/mL bovine serum albumin (BSA), pH 7.3). Twenty microliters of uptake buffer with or without testing compounds were added to the cells. Then, 20 microliters of uptake buffer containing ^14C-AMG (100 nCi) were added to the cells. The cell plates were incubated at 37° C., 5% CO2 for 1-2 hours. After washing the cells with uptake buffer, scintillation fluid was added (40 microliters/well) and ^14C-AMG uptake was measured by counting radioactivity using a scintillation coulter (TopCoulter NXT; Packard Instruments).

Human sodium/glucose co-transporter type 1 (SGLT1), sequence (P13866 whole entry): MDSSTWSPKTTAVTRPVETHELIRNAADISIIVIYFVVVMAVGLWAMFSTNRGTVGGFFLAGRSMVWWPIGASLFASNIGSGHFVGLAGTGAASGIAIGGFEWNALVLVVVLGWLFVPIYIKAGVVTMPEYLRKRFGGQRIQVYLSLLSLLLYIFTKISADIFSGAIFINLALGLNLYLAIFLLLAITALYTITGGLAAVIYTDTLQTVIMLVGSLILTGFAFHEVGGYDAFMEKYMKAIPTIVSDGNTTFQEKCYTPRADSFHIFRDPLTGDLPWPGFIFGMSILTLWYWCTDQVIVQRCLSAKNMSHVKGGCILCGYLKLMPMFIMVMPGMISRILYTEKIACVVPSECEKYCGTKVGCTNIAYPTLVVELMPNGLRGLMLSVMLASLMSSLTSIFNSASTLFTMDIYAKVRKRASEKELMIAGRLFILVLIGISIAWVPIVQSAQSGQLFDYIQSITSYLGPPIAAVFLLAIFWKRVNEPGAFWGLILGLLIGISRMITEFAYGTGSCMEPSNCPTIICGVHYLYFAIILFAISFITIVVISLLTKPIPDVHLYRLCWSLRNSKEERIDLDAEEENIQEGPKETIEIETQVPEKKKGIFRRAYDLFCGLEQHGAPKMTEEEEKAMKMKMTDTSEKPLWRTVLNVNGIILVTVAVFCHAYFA
Human sodium/glucose co-transporter type 2 (SGLT2), sequence (P31639 whole entry): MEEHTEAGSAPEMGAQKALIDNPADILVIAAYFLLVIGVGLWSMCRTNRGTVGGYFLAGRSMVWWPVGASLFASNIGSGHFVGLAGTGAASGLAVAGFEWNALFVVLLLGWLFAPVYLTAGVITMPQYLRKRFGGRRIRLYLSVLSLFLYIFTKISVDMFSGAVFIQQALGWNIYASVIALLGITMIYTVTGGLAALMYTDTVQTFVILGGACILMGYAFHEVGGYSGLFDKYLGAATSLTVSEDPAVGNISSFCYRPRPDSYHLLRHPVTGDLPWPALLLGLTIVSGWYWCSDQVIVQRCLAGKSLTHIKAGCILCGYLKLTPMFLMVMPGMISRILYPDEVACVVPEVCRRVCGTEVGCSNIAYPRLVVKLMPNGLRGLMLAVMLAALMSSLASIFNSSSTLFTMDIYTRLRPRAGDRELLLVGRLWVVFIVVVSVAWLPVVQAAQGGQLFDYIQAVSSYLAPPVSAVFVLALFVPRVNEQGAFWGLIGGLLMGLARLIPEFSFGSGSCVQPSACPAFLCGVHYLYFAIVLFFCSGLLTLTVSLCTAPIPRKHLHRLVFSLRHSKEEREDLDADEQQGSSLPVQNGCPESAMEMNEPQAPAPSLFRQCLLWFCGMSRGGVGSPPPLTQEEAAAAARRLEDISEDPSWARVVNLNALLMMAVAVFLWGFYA

With `CCN(CC)CCCCc1ccc(Cc2cc([C@@H]3O[C@H](SC)[C@@H](O)[C@H](O)[C@H]3O)ccc2C)cc1` [(2S,3R,4R,5S,6R)-2-(3-(4-(4-(diethylamino)butyl)benzyl)-4-methylphenyl)-6-(methylthio)tetrahydro-2H-pyran-3,4,5-triol], the IC50 in experiment [1] and in experiment [2] was less than 10 nM each time.

In the case of `CS[C@H]1O[C@@H](c2ccc(C)c(Cc3ccc(CCCCCCC(=O)NC(CO)(CO)CO)cc3)c2)[C@H](O)[C@@H](O)[C@@H]1O` [N-(1,3-dihydroxy-2-(hydroxymethyl)propan-2-yl)-7-(4-(2-methyl-5-((2S,3R,4R,5S,6R)-3,4,5-trihydroxy-6-(methylthio)tetrahydro-2H-pyran-2-yl)benzyl)phenyl)heptanamide], the concentration for half-maximal inhibition (IC50) in experiment [1] was less than 100 nM; in experiment [2], less than 10 nM.

Turning to `CCC(=O)NCCOc1ccc(Cc2cc([C@@H]3O[C@H](SC)[C@@H](O)[C@H](O)[C@H]3O)ccc2Cl)cc1` [N-(2-(4-(2-chloro-5-((2S,3R,4R,5S,6R)-3,4,5-trihydroxy-6-(methylthio)tetrahydro-2H-pyran-2-yl)benzyl)phenoxy)ethyl)propionamide], the IC50 in experiment [1] and in experiment [2] was less than 10 nM each time.

Regarding `CS[C@H]1O[C@@H](c2ccc(C)c(Cc3ccc(CCCC(=O)NC(C)(C)C(=O)N4CCNCC4)cc3)c2)[C@H](O)[C@@H](O)[C@@H]1O` [N-(2-methyl-1-oxo-1-(piperazin-1-yl)propan-2-yl)-4-(4-(2-methyl-5-((2S,3R,4R,5S,6R)-3,4,5-trihydroxy-6-(methylthio)tetrahydro-2H-pyran-2-yl)benzyl)phenyl)butanamide], the IC50 in experiment [1] and in experiment [2] was less than 10 nM each time.

Consider `CS[C@H]1O[C@@H](c2ccc(C)c(Cc3ccc(OCCCC(=O)NC(C)(C)CO)cc3)c2)[C@H](O)[C@@H](O)[C@@H]1O` [N-(1-hydroxy-2-methylpropan-2-yl)-4-(4-(2-methyl-5-((2S,3R,4R,5S,6R)-3,4,5-trihydroxy-6-(methylthio)tetrahydro-2H-pyran-2-yl)benzyl)phenoxy)butanamide], for which the half-inhibitory concentration (IC50) in experiment [1] and in experiment [2] was less than 10 nM throughout.

Consider `COCCOCCOc1ccc(Cc2cc([C@@H]3O[C@H](SC)[C@@H](O)[C@H](O)[C@H]3O)ccc2C)cc1` [(2S,3R,4R,5S,6R)-2-(3-(4-(2-(2-methoxyethoxy)ethoxy)benzyl)-4-methylphenyl)-6-(methylthio)tetrahydro-2H-pyran-3,4,5-triol], for which the IC50 in experiment [1] and in experiment [2] was less than 10 nM each time.

Take `CS[C@H]1O[C@@H](c2ccc(C)c(Cc3ccc(CCCC(=O)N4CCN(C)CC4)cc3)c2)[C@H](O)[C@@H](O)[C@@H]1O` [4-(4-(2-methyl-5-((2S,3R,4R,5S,6R)-3,4,5-trihydroxy-6-(methylthio)tetrahydro-2H-pyran-2-yl)benzyl)phenyl)-1-(4-methylpiperazin-1-yl)butan-1-one]: the IC50 in experiment [1] was less than 100 nM; in experiment [2] it was less than 10 nM.

Turning to `CS[C@H]1O[C@@H](c2ccc(C)c(Cc3ccc(/C=C/CCC(=O)NC(CO)(CO)CO)cc3)c2)[C@H](O)[C@@H](O)[C@@H]1O` [(E)-N-(1,3-dihydroxy-2-(hydroxymethyl)propan-2-yl)-5-(4-(2-methyl-5-((2S,3R,4R,5S,6R)-3,4,5-trihydroxy-6-(methylthio)tetrahydro-2H-pyran-2-yl)benzyl)phenyl)pent-4-enamide], the half-maximal inhibitory concentration (IC50) in experiment [1] and in experiment [2] was less than 10 nM each time.

For the compound `CS[C@H]1O[C@@H](c2ccc(C)c(Cc3ccc(OCCCC(=O)NC4(C(N)=O)CCCC4)cc3)c2)[C@H](O)[C@@H](O)[C@@H]1O` [1-(4-(4-(2-methyl-5-((2S,3R,4R,5S,6R)-3,4,5-trihydroxy-6-(methylthio)tetrahydro-2H-pyran-2-yl)benzyl)phenoxy)butanamido)cyclopentanecarboxamide], the IC50 in experiment [1] and in experiment [2] was less than 10 nM in each case.

As to `COC(=O)CCCOc1ccc(Cc2cc([C@@H]3O[C@H](SC)[C@@H](O)[C@H](O)[C@H]3O)ccc2Cl)cc1` [methyl 4-(4-(2-chloro-5-((2S,3R,4R,5S,6R)-3,4,5-trihydroxy-6-(methylthio)tetrahydro-2H-pyran-2-yl)benzyl)phenoxy)butanoate], the “SGLT1 (human SGLT1 IC50)” value in experiment [1] was “—”. For the same compound, the “SGLT2 (human SGLT2 IC50)” value in experiment [2] is “—”.

In the case of `CS[C@H]1O[C@@H](c2ccc(C)c(Cc3ccc(CCCC(=O)NC(C)(C)C(=O)N4CCC(NC(=O)OC(C)(C)C)CC4)cc3)c2)[C@H](O)[C@@H](O)[C@@H]1O` [tert-butyl (1-(2-methyl-2-(4-(4-(2-methyl-5-((2S,3R,4R,5S,6R)-3,4,5-trihydroxy-6-(methylthio)tetrahydro-2H-pyran-2-yl)benzyl)phenyl)butanamido)propanoyl)piperidin-4-yl)carbamate], the half-maximal inhibitory concentration (IC50) in experiment [1] and in experiment [2] was less than 10 nM each time.

For `CS[C@H]1O[C@@H](c2ccc(C)c(Cc3ccc(OCCCC(=O)NC(C)(C)C(=O)N4CCOCC4)cc3)c2)[C@H](O)[C@@H](O)[C@@H]1O` [N-(2-methyl-1-morpholino-1-oxopropan-2-yl)-4-(4-(2-methyl-5-((2S,3R,4R,5S,6R)-3,4,5-trihydroxy-6-(methylthio)tetrahydro-2H-pyran-2-yl)benzyl)phenoxy)butanamide], the IC50 in experiment [1] and in experiment [2] was less than 10 nM each time.

For `CS[C@H]1O[C@@H](c2ccc(C)c(Cc3ccc(CCCCCC(=O)NC(C)(C)C(N)=O)cc3)c2)[C@H](O)[C@@H](O)[C@@H]1O` [N-(1-amino-2-methyl-1-oxopropan-2-yl)-6-(4-(2-methyl-5-((2S,3R,4R,5S,6R)-3,4,5-trihydroxy-6-(methylthio)tetrahydro-2H-pyran-2-yl)benzyl)phenyl)hexanamide], the 50% inhibitory concentration (IC50) in experiment [1] is less than 100 nM; in experiment [2], less than 10 nM.

As to `CS[C@H]1O[C@@H](c2ccc(C)c(Cc3ccc(OCCCC(=O)NC(C)(C)C(N)=O)cc3)c2)[C@H](O)[C@@H](O)[C@@H]1O` [N-(1-amino-2-methyl-1-oxopropan-2-yl)-4-(4-(2-methyl-5-((2S,3R,4R,5S,6R)-3,4,5-trihydroxy-6-(methylthio)tetrahydro-2H-pyran-2-yl)benzyl)phenoxy)butanamide], the half-maximal inhibitory concentration (IC50) in experiment [1] and in experiment [2] was less than 10 nM throughout.

For the compound `CS[C@H]1O[C@@H](c2ccc(C)c(Cc3ccc(/C=C/CC(C(=O)NC(C)(C)C(N)=O)C(=O)NC(C)(C)C(N)=O)cc3)c2)[C@H](O)[C@@H](O)[C@@H]1O` [N1,N3-bis(1-amino-2-methyl-1-oxopropan-2-yl)-2-((E)-3-(4-(2-methyl-5-((2S,3R,4R,5S,6R)-3,4,5-trihydroxy-6-(methylthio)tetrahydro-2H-pyran-2-yl)benzyl)phenyl)allyl)malonamide], the figures for the concentration for half-maximal inhibition (IC50) in experiment [1] and in experiment [2] were less than 100 nM and less than 10 nM, respectively.

With `CS[C@H]1O[C@@H](c2ccc(Cl)c(Cc3ccc(OCCNC(=O)N4CCN(C)CC4)cc3)c2)[C@H](O)[C@@H](O)[C@@H]1O` [N-(2-(4-(2-chloro-5-((2S,3R,4R,5S,6R)-3,4,5-trihydroxy-6-(methylthio)tetrahydro-2H-pyran-2-yl)benzyl)phenoxy)ethyl)-4-methylpiperazine-1-carboxamide], the IC50 in experiment [1] and in experiment [2] was less than 10 nM each time.

`CS[C@H]1O[C@@H](c2ccc(C)c(Cc3ccc(OCCNC(=O)NC(C)(C)CO)cc3)c2)[C@H](O)[C@@H](O)[C@@H]1O` [1-(1-hydroxy-2-methylpropan-2-yl)-3-(2-(4-(2-methyl-5-((2S,3R,4R,5S,6R)-3,4,5-trihydroxy-6-(methylthio)tetrahydro-2H-pyran-2-yl)benzyl)phenoxy)ethyl)urea] had a 50% inhibitory concentration (IC50) in experiment [1] of less than 100 nM.

As usually defined, the IC50 is the concentration that inhibits the measured activity by half.

For the origin of these results see US9688710B2, “Inhibitors of sodium glucose cotransporter 1” (LEXICON PHARMACEUTICALS, INC., priority 2012, dated 2017).
